US12446584B2, “Termiticide composition and methods for treating termites” (ADAMA MAKHTESHIM LTD., priority 2013, dated 2025)
Read-outs that look alike come from different tables or passages of the source.

Experiments:
Assay type in all cases: in vivo
[1] = system: Eastern subterranean termites (Reticulitermes flavipes); assay: Thin plate bioassay
Experimental: (§1) A laboratory study was conducted, using recently collected R. flavipes and C. formosanus. Thin plate bioassays were assembled using 0.6 cm glass and 0.6 cm clear Lexan. A sheet of 20.3×66 cm glass was used for the bottom. Two pieces of 2.5×61 cm glass were laid along the long edges, and two pieces of […]. Each arena had 450 g of screened sand evenly applied, and moistened with deionized water to help hold it in place during construction of the arenas. Fisher brand tongue depressors, cut in half, were used as a food source for the termites, and placed at one end of the arena. Prior to adding the Lexan top sheets, 0.6 cm holes were drilled at one end, and three 0.6 cm treatment apertures were drilled equally spaced apart at the center line. One 8 cm Petri dish with a 0.6 cm hole drilled in the bottom was lined up with the hole at the end of the top sheet, and glued down. Glue was allowed to dry for 72 hours. Large binder clips were used to hold the arena together.
(§2) Termiticide solutions were prepared as follows: Fipronil 0.017%; Fipronil 0.03%; Imidacloprid 0.05%; Imi-Fip 0.067% (Imidacloprid 0.05%, Fipronil 0.017%); and Untreated Control (water only). Ten ml of each finished solution of termiticide were applied to each arena: each of the three treatment apertures received 3.3 ml of termiticide. The treatments were allowed to dry for 24 hours, and the treatment apertures were covered with a 2.5×7.5 cm microscope slide. In each Petri dish, 500 worker and 15 soldier termites were added, using either R. flavipes or C. formosanus. Each treatment was replicated four times. Data regarding distance tunneled and mortality were collected daily for eight days. Data was analyzed using Analysis of Variance (ANOVA) and means were separated by Tukey's HSD (Honest Significant Difference test (IBM SPSS v 19).

[2] = system: Formosan subterranean termites (Coptotermes formosanus); assay: Thin plate bioassay
Experimental: as §1, §2

[3] = system: Eastern Subterranean Reticulitermes flavipes termites; assay: Transfer effects among nestmates (donor/recipient Petri dish arenas); conditions: Reticulitermes flavipes, donors treated with 50 ppm
Experimental: (§3) The purpose of this study was to determine whether there is transference of […] among nestmates of subterranean termites. Arenas for this study consisted of a 15 cm Petri dish. […] Donor and untreated marked control termites were marked using RustOleum® Marking Paint, using methodology described by Keefer et al. 2012.
(§4) Two untreated soldier termites for each species were added to each arena to simulate colony dynamics. Post-treatment observations for mortality were made at 4 h and then daily through day 7.

[4] = system: Formosan Coptotermes formosanus termites; assay: as above; conditions: donors treated with 50 ppm; for mortality at 50 ppm: Coptotermes formosanus
Experimental: as §3, §4

[5] = 0.017% solution, 1 day post-treatment
[6] = 0.017% solution, 2 days post-treatment
[7] = 0.017% solution, 3 days post-treatment
[8] = 0.017% solution, 4 days post-treatment
[9] = 0.017% solution, 5 days post-treatment
[10] = 0.017% solution, 6 days post-treatment
[11] = 0.017% solution, 7 days post-treatment
[12] = 0.017% solution, 8 days post-treatment
[13] = 0.03% solution, 1 day post-treatment
[14] = 0.03% solution, 2 days post-treatment
[15] = 0.03% solution, 3 days post-treatment
[16] = 0.03% solution, 4 days post-treatment
[17] = 0.03% solution, 5 days post-treatment
[18] = 0.03% solution, 6 days post-treatment
[19] = 0.03% solution, 7 days post-treatment
[20] = 0.03% solution, 8 days post-treatment
[21] = 4 h, donor:recipient ratio 1:19, 4 h, read-out: Mean total % mortality of donors and recipients
[22] = 4 h, donor:recipient ratio 5:15, 4 h, read-out: Mean total % mortality of donors and recipients
[23] = 4 h, donor:recipient ratio 10:10, 4 h, read-out: Mean total % mortality of donors and recipients
[24] = 4 h, donor:recipient ratio 15:5, 4 h, read-out: Mean total % mortality of donors and recipients
[25] = 24 h, by treatment (all ratios), 1 d, read-out: Mean % mortality of donors and recipients
[26] = 24 h, donor:recipient ratio 1:19, 1 d, read-out: Mean total % mortality of donors and recipients
[27] = 24 h, donor:recipient ratio 5:15, 1 d, read-out: Mean total % mortality of donors and recipients
[28] = 24 h, donor:recipient ratio 10:10, 1 d, read-out: Mean total % mortality of donors and recipients
[29] = 24 h, donor:recipient ratio 15:5, 1 d, read-out: Mean total % mortality of donors and recipients
[30] = 48 h, by treatment (all ratios), 2 d, read-out: Mean % mortality of donors and recipients
[31] = 48 h, donor:recipient ratio 1:19, 2 d, read-out: Mean total % mortality of donors and recipients
[32] = 48 h, donor:recipient ratio 5:15, 2 d, read-out: Mean total % mortality of donors and recipients
[33] = 48 h, donor:recipient ratio 10:10, 2 d, read-out: Mean total % mortality of donors and recipients
[34] = 48 h, donor:recipient ratio 15:5, 2 d, read-out: Mean total % mortality of donors and recipients
[35] = 72 h, by treatment (all ratios), 3 d, read-out: Mean % mortality of donors and recipients
[36] = 72 h, donor:recipient ratio 1:19, 3 d, read-out: Mean total % mortality of donors and recipients
[37] = 72 h, donor:recipient ratio 5:15, 3 d, read-out: Mean total % mortality of donors and recipients
[38] = 72 h, donor:recipient ratio 10:10, 3 d, read-out: Mean total % mortality of donors and recipients
[39] = 72 h, donor:recipient ratio 15:5, 3 d, read-out: Mean total % mortality of donors and recipients
[40] = 96 h, by treatment (all ratios), 4 d, read-out: Mean % mortality of donors and recipients
[41] = 96 h, donor:recipient ratio 1:19, 4 d, read-out: Mean total % mortality of donors and recipients
[42] = 96 h, donor:recipient ratio 5:15, 4 d, read-out: Mean total % mortality of donors and recipients
[43] = 96 h, donor:recipient ratio 10:10, 4 d, read-out: Mean total % mortality of donors and recipients
[44] = 96 h, donor:recipient ratio 15:5, 4 d, read-out: Mean total % mortality of donors and recipients
[45] = 120 h, by treatment (all ratios), 5 d, read-out: Mean % mortality of donors and recipients
[46] = 120 h, donor:recipient ratio 1:19, 5 d, read-out: Mean total % mortality of donors and recipients
[47] = 120 h, donor:recipient ratio 5:15, 5 d, read-out: Mean total % mortality of donors and recipients
[48] = 120 h, donor:recipient ratio 10:10, 5 d, read-out: Mean total % mortality of donors and recipients
[49] = 120 h, donor:recipient ratio 15:5, 5 d, read-out: Mean total % mortality of donors and recipients
[50] = 144 h, by treatment (all ratios), 6 d, read-out: Mean % mortality of donors and recipients
[51] = 144 h, donor:recipient ratio 1:19, 6 d, read-out: Mean total % mortality of donors and recipients
[52] = 144 h, donor:recipient ratio 5:15, 6 d, read-out: Mean total % mortality of donors and recipients
[53] = 144 h, donor:recipient ratio 10:10, 6 d, read-out: Mean total % mortality of donors and recipients
[54] = 144 h, donor:recipient ratio 15:5, 6 d, read-out: Mean total % mortality of donors and recipients
[55] = 168 h, by treatment (all ratios), 7 d, read-out: Mean % mortality of donors and recipients
[56] = 168 h, donor:recipient ratio 1:19, 7 d, read-out: Mean total % mortality of donors and recipients
[57] = 168 h, donor:recipient ratio 5:15, 7 d, read-out: Mean total % mortality of donors and recipients
[58] = 168 h, donor:recipient ratio 10:10, 7 d, read-out: Mean total % mortality of donors and recipients
[59] = 168 h, donor:recipient ratio 15:5, 7 d, read-out: Mean total % mortality of donors and recipients

Compound: N#Cc1nn(-c2c(Cl)cc(C(F)(F)F)cc2Cl)c(N)c1[S+]([O-])C(F)(F)F [Fipronil, 5-amino-1-[2,6-dichloro-4-(trifluoromethyl)phenyl]-4-[(1-R,S)(trifluoromethyl)sulfinyl]-1H-pyrazole-3-carbonitrile]
- Mean % mortality [1, 5]: 5.25 a %
- Mean % mortality [1, 6]: 30.50 a %
- Mean % mortality [1, 7]: 75.00 a %
- Mean % mortality [1, 8]: 77.50 a %
- Mean % mortality [1, 9]: 90.00 b %
- Mean % mortality [1, 10]: 95.50 b %
- Mean % mortality [1, 11]: 100.00 a %
- Mean % mortality [1, 12]: 100.00 a %
- Mean % mortality [1, 13]: 0.75 b %
- Mean % mortality [1, 14]: 2.25 b %
- Mean % mortality [1, 15]: 67.50a %
- Mean % mortality [1, 16]: 70.00 a %
- Mean % mortality [1, 17]: 90.00 b %
- Mean % mortality [1, 18]: 100.00 a %
- Mean % mortality [1, 19]: 100.00 a %
- Mean % mortality [1, 20]: 100.00 a %
- Mean % mortality [2, 5]: 1.37 a %
- Mean % mortality [2, 6]: 8.62 b %
- Mean % mortality [2, 7]: 15.00 a %
- Mean % mortality [2, 8]: 30.60 a %
- Mean % mortality [2, 9]: 72.20 a %
- Mean % mortality [2, 10]: 72.20 c %
- Mean % mortality [2, 11]: 83.50 b %
- Mean % mortality [2, 12]: 100.00a %
- Mean % mortality [2, 13]: 5.05 a %
- Mean % mortality [2, 14]: 17.25ab %
- Mean % mortality [2, 15]: 19.75 a %
- Mean % mortality [2, 16]: 49.40 a %
- Mean % mortality [2, 17]: 70.50 a %
- Mean % mortality [2, 18]: 99.25 a %
- Mean % mortality [2, 19]: 100.00 a %
- Mean % mortality [2, 20]: 100.00a %
- mortality at 50 ppm ([3]; 4 h, by treatment (all ratios), 4 h, read-out: Mean % mortality of donors and recipients): 3.75%
- mortality at 50 ppm [3, 21]: 3.75%
- mortality at 50 ppm [3, 22]: 5%
- mortality at 50 ppm [3, 23]: 1.25%
- mortality at 50 ppm [3, 24]: 5%
- mortality at 50 ppm [3, 25]: 23.5%
- mortality at 50 ppm [3, 26]: 10%
- mortality at 50 ppm [3, 27]: 17.5%
- mortality at 50 ppm [3, 28]: 17.5%
- mortality at 50 ppm [3, 29]: 56.2%
- mortality at 50 ppm [3, 30]: 57.2%
- mortality at 50 ppm [3, 31]: 16.2%
- mortality at 50 ppm [3, 32]: 53.8%
- mortality at 50 ppm [3, 33]: 71.2%
- mortality at 50 ppm [3, 34]: 87.5%
- mortality at 50 ppm [3, 35]: 70.3%
- mortality at 50 ppm [3, 36]: 22.5%
- mortality at 50 ppm [3, 37]: 70%
- mortality at 50 ppm [3, 38]: 88.8%
- mortality at 50 ppm [3, 39]: 100%
- mortality at 50 ppm [3, 40]: 72.8%
- mortality at 50 ppm [3, 41]: 26.2%
- mortality at 50 ppm [3, 42]: 72.5%
- mortality at 50 ppm [3, 43]: 92.5%
- mortality at 50 ppm [3, 44]: 100%
- mortality at 50 ppm [3, 45]: 83.8%
- mortality at 50 ppm [3, 46]: 52.5%
- mortality at 50 ppm [3, 47]: 82.5%
- mortality at 50 ppm [3, 48]: 100%
- mortality at 50 ppm [3, 49]: 100%
- mortality at 50 ppm [3, 50]: 98.1%
- mortality at 50 ppm [3, 51]: 97.5%
- mortality at 50 ppm [3, 52]: 95%
- mortality at 50 ppm [3, 53]: 100%
- mortality at 50 ppm [3, 54]: 100%
- mortality at 50 ppm [3, 55]: 100%
- mortality at 50 ppm [3, 56]: 100%
- mortality at 50 ppm [3, 57]: 100%
- mortality at 50 ppm [3, 58]: 100%
- mortality at 50 ppm [3, 59]: 100%
- mortality at 50 ppm [4, 21]: 0%
- mortality at 50 ppm [4, 22]: 3.75%
- mortality at 50 ppm [4, 23]: 17.5%
- mortality at 50 ppm [4, 24]: 16.2%
- mortality at 50 ppm [4, 25]: 50.6%
- mortality at 50 ppm [4, 26]: 0%
- mortality at 50 ppm [4, 27]: 2.5%
- mortality at 50 ppm [4, 28]: 100%
- mortality at 50 ppm [4, 29]: 100%
- mortality at 50 ppm [4, 30]: 53.1%
- mortality at 50 ppm [4, 31]: 8.75%
- mortality at 50 ppm [4, 32]: 3.75%
- mortality at 50 ppm [4, 33]: 100%
- mortality at 50 ppm [4, 34]: 100%
- mortality at 50 ppm [4, 35]: 59.7%
- mortality at 50 ppm [4, 36]: 18.8%
- mortality at 50 ppm [4, 37]: 20%
- mortality at 50 ppm [4, 38]: 100%
- mortality at 50 ppm [4, 39]: 100%
- mortality at 50 ppm [4, 40]: 67.8%
- mortality at 50 ppm [4, 41]: 25%
- mortality at 50 ppm [4, 42]: 46.2%
- mortality at 50 ppm [4, 43]: 100%
- mortality at 50 ppm [4, 44]: 100%
- mortality at 50 ppm [4, 45]: 82.5%
- mortality at 50 ppm [4, 46]: 30%
- mortality at 50 ppm [4, 47]: 100%
- mortality at 50 ppm [4, 48]: 100%
- mortality at 50 ppm [4, 49]: 100%
- mortality at 50 ppm [4, 50]: 85.5%
- mortality at 50 ppm [4, 51]: 30%
- mortality at 50 ppm [4, 52]: 100%
- mortality at 50 ppm [4, 53]: 100%
- mortality at 50 ppm [4, 54]: 100%
- mortality at 50 ppm [4, 55]: 90%
- mortality at 50 ppm [4, 56]: 60%
- mortality at 50 ppm [4, 57]: 100%
- mortality at 50 ppm [4, 58]: 100%
- mortality at 50 ppm [4, 59]: 100%
- Mean % mortality of donors and recipients ([4]; by treatment (all ratios), 4 h): 9.37 b %
- Mean % mortality of donors and recipients ([4]; by treatment (all ratios), 4 h, listed as fipronil): 1%
